Measured values from ChEMBL document CHEMBL1139143, “Synthesis and structure-activity relationships of N-substituted spiropiperidines as nociceptin receptor ligands” (Bioorg Med Chem Lett, 2007).

What was measured:
Assay type in all cases: ADME, organism-based
[1] = Cmax in rat after 4 hrs; conditions: in vivo
[2] = AUC (0 to 6 hrs) in rat; parameters: time < 6 hr; conditions: plasma
[3] = Drug level in rat after 6 hrs; conditions: in vivo, read-out: Drug uptake

CC1(C)CCC(N2CCC3(CC2)C(=O)NCN3c2ccccc2)c2cc(Cl)c(Cl)cc21 (stereo not drawn)
Cmax [1]: 518 nM
AUC(0-t) at 6 h [2]: 2.11 µM·h
concentration at 6 h [3]: 467 nM
